Reference: patent publication US8642297B2, “Production of L-ribose and other rare sugars” (ZuChem, Inc., priority 2005, dated 2014)

Legend:
Native MDH = target: T1, Native MDH (Apium graveolens, UniProt Q38707); conditions: cited from earlier work; for Relative reaction rate, Native MDH: relative to D-mannitol = 100%, natively expressed MDH
T1 construct: compared with the published data on the natively expressed MDH; host or cells: celery (Apium graveolens)
T1 sequence (Q38707 1-365): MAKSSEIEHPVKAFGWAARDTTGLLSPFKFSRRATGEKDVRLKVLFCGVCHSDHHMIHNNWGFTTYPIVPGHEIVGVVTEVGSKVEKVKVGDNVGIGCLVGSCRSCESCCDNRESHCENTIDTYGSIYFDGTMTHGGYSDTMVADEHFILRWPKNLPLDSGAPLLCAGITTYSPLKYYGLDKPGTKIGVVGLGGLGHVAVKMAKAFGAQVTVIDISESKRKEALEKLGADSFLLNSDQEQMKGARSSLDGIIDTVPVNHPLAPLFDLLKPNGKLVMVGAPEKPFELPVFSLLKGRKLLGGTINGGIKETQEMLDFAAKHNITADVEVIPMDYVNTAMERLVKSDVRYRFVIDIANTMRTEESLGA

Recombinant MDH = target: T2, Recombinant MDH (Apium graveolens, UniProt Q38707, C47S/T120I); assay: Relative reaction rates of substrates with recombinantly expressed MDH (NADH formation measured spectrophotometrically); assay type: biochemical; conditions: relative to D-mannitol = 100%; MDH expressed in E. coli
T2 construct: made in house; host or cells: E. coli BL21 (pTTQ18 plasmid, tac promoter)
Description: (§1) Many different variables were studied to maximize the expression and activity of MDH. MDH activity was monitored with the conversion of D-mannitol to D-mannose in the presence of NAD. The conversion was monitored spectrophotometrically by measuring the increasing concentration of NADH, the cofactor product of the oxidation of mannitol to mannose. For a given experiment, lysate protein concentrations were normalized.
Substrate specificity of the recombinant MDH was also tested and compared with the published data on the natively expressed MDH. Recombinant expression of MDH in E. coli could cause subtle modifications to the tertiary structure of MDH and modify the substrate specificity. Several known substrates of the MDH were tested.[16]
The reaction rate of L-fucitol for recombinant MDH was tested. […] The fucitol was not originally characterized in the previous literature on MDH.[38]

[1] = target: T3, Apium gravelons mannitol-1-dehydrogenase (MDH) (Apium graveolens, UniProt Q38707, C47S/T120I); assay: MDH activity in lysate with added divalent metal salts, D-mannitol and NAD at pH 9.0; assay type: biochemical
T3 construct: made in house; host or cells: E. coli BL21 (pTTQ18 plasmid, tac promoter)
Description: While not explicitly described in the literature, Apium gravelons mannitol-1-dehydrogenase (MDH) requires divalent metal ions, particularly Zn^2+ ions, for activity. The presence of ZnSO4 increases MDH activity. Cells expressing MDH were grown in rich media were harvested and lysed with BUGBUSTER® protein extraction reagent, Novagen, Madison, Wis. MDH activity was then tested with increasing concentrations of ZnSO4 in the presence of D-mannitol and NAD cofactor at pH 9.0. See, FIG. 1.

[2] = assay type: biochemical, Apium graveolens
Description: as §1
The pH profile for MDH for the oxidation reactions was also tested. […] This range could be beneficial for in vitro bioconversions with enzymatic NAD cofactor recycling methods. Increasing the activity of MDH at neutral pH could improve in vivo fermentation activity as the interior of the E. coli cell has a pH lower than 9.0.[21]
The recombinant MDH was tested for activity at various temperatures. Lysates containing expressed MDH were incubated with D-mannitol and NAD at pH 9.0. Activity was measured by measuring the increased NADH concentration spectrophotometrically at A340nm. […] See, FIG. 12.
The thermostability of recombinant MDH was also tested. Lysates containing MDH were incubated at various temperatures. Aliquots of MDH were removed at various times to measure MDH activity using the assay described above. See, FIG. 13.

T3 sequence (Q38707 whole entry C47S/T120I): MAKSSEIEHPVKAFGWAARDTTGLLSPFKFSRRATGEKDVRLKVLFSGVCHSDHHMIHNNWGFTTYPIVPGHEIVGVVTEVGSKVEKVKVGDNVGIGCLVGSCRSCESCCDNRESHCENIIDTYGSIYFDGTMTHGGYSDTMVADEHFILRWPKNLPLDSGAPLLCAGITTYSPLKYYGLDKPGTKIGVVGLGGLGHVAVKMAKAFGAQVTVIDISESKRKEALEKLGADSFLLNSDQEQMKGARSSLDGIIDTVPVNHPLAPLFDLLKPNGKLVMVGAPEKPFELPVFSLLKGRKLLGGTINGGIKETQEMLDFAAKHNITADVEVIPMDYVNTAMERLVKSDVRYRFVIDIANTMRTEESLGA
T2 sequence (Q38707 whole entry C47S/T120I): as above

Compound | Relative reaction rate, Native MDH (Native MDH) [%] | Relative reaction rate, Recombinant MDH (Recombinant MDH) [%] | other results
OC[C@@H](O)[C@@H](O)[C@H](O)[C@H](O)CO [D-Mannitol] | 100 | 100 | 
O=S(=O)([O-])[O-].[Zn+2] [Zn^2+, ZnSO4] |  |  | Increase of MDH activity ([1]; 1 μM Zn^2+ ions compared to no added zinc): 50%; Effect on MDH activity at concentrations above 1 μM ([1]; concentrations above 1 μM): inhibition
OC[C@@H](O)[C@H](O)[C@@H](O)CO [Xylitol] | 0 | 1 | Conversion of xylitol to L-xylose by wild-type MDH (Native MDH; wild-type MDH): does not convert
MDH: NAD-dependent mannitol-1-dehydrogenase from Apium graveolens, recombinantly expressed in E. coli |  |  | Thermostability (loss of activity on incubation) [2]: Most MDH activity was lost; Residual activity at pH 7.0 ([2]; pH 7.0, relative to maximum at pH 9.0): 10%
C[C@H](O)[C@@H](O)[C@@H](O)[C@H](O)CO [L-fucitol] |  | 10.5 | 
OC[C@@H](O)[C@@H](O)[C@H](O)[C@@H](O)CO [D-Sorbitol] | 22 | 5 | 
OC[C@@H](O)C(O)[C@H](O)CO [D-Arabitol] | 37 | 33 | 
OC[C@@H](O)[C@@H](O)[C@@H](O)CO [Ribitol] | 36 | 50 | 
OC[C@@H](O)[C@@H](O)CO [Erythritol] | 16 | 4 | 
O=S(=O)([O-])[O-].[Ni+2] [NiSO4] |  |  | Inhibition of MDH activity ([1]; 0.1 mM NiSO4 compared to MDH without NiSO4 added): approximately 50%
